Test results taken from patent publication US4576956A, “Iodo propargylaminoisoxazoles as fungicides” (Shionogi & Co., Ltd., priority 1982, dated 1986).
Converted amounts (≈) assume the structure as drawn.

How the values were obtained:
fungi = conditions: prior art, Japanese patent publications; cited from earlier work
Trichophyton asteroides [1] = assay: Test A-1 Anti-fungal Activity (MIC), microwell dilution; type: cell-based; conditions: T. asteroides, in vitro, 1×10^5 cells/ml
Description: (§1) Test A-1 Anti-fungal Activity (MIC)
The following results (Table 1) were obtained in an anti-fungal activity test in vitro against Aspergillus fumigatus, Candida albicans M-9 and Trichophyton asteroides. The concentration of the test cells was 1×10^5 cells/ml and the activity was measured by a microwell dilution method. The structure of the test compounds is referred to in the Examples.

[2] = tested on: Pseudoperonospora cubensis; assay: Test B-3 Control Test to Downy Mildew of Cucumber; type: in vivo; conditions: 500 ppm, 7 days
Description: Test B-3 Control Test to Downy Mildew of Cucumber
Each cucumber seedling was sprayed with 2.5 ml of a test solution in the same manner as in Test B-1. After the spraying, the seedlings were kept at 25°-26° C. for a day and a zoosporangium suspension or Pseudoperonospora cubensis was inoculated at a rate of five spots per leaf on a primary leaf. The treated seedlings were kept in a greenhouse for 7 days and then observed.
(2) Slight disease at the inoculation spot . . . X5
(3) A disease spot in the same size as the inoculation spot (without spreading) . . . x10
(4) A disease spot larger than the inoculation spot . . . x20
Disease degree and percent disease control were calculated in the same manner as in Test B-1.

Botrytis cinerea = assay: Test B-1 Control Test of Botrytis Rot (Gray Mold) of Cucumber; type: in vivo; conditions: 500 ppm, 3 days
Description: Test B-1 Control Test of Botrytis Rot (Gray Mold) of Cucumber Seedlings of Cucumber (Cultivar: Matsukaze) were planted and grown in soil in vinyl-chloride cups of 9 cm in diameter in a greenhouse. […] The treated cucumbers were kept for 3 days in a greenhouse (20° C.) and then disease degrees were counted. Standard of Evaluation […] (2) A slight soaked lesion on the reverse of the test leaf . . . × 5 (3) A slight fade of the leaf . . . × 10 (4) The inoculated part was faded and the fading expanded erosively . . . × 20 [formula]

Sphaerotheca fuliginea = assay: Test B-5 Control Test to Powdery Mildew of Cucumber; type: in vivo; conditions: 500 ppm, 2 weeks
Description: Test B-5 Control Test to Powdery Mildew of Cucumber
Each cucumber seedling was sprayed with 2.5 ml of a test solution. The seedlings were kept at 25°-26° C. for 1 day after the spraying and then sprayed with a conidium (1×10^5 conidia/ml) of Sphaerotheca fuliginea in a 100 ppm spreader solution (containing 20% polyoxyethylene glycol alkyl phenol ether and 12% lignin sulfonate) at a rate of 25 ml/20 cups.
The seedlings were kept in a greenhouse (25° C.) for 2 weeks and then observed.
Standard of Evaluation [formula]
The percent disease control was calculated in the same manner as in Test B-1.

Aspergillus fumigatus = assay: Test A-1 Anti-fungal Activity (MIC), microwell dilution; type: cell-based; conditions: in vitro, 1×10^5 cells/ml
Description: as §1
(§2) The concentration of the test cells was 1×10^5 cells/ml and the activity was measured by a microwell dilution method. The structure of the test compounds is referred to in the Examples.

Candida albicans M-9 = assay: as above; type: cell-based; conditions: M9, C. albicans M-9, in vitro, 1×10^5 cells/ml
Description: as §1, §2

[3] = tested on: Colletotrichum lagenarium; assay: Test B-4 Control Test to Anthracnose of Cucumber; type: in vivo; conditions: 500 ppm, 3 + 3 days
Description: Test B-4 Control Test to Anthracnose of Cucumber Each cucumber seedling was sprayed with 2.5 ml of a test solution in the same manner as in Test B-1. After the spraying, the seedlings were kept at 25°-26° C. for a day and were inoculated with five filter-paper disks of 6 mm in diameter saturated with a conidium suspension of Colletotrichum lagenarium at a concentration of 1×10^6 conidia/ml. The treated seedlings were kept in a greenhouse (25° C.) for 3 days and further kept at below 25° C. for 3 days. Standard of Evaluation The same as noted in Test B-3.

Sclerotinia sclerotiorum = assay: Test B-2 Control Test to Sclerotinia Rot of Cucumber; type: in vivo; conditions: 48 h, 2 days, read-out: Percent Disease Control
Description: Test B-2 Control Test to Sclerotinia Rot of Cucumber
Cucumber seedlings were sprayed with 2.5 ml of a test solution in the same manner as in Test B-1. Afterthe spraying, the seedlings were kept at 25°-26° C. for a day and three disks of 4 mm in diameter containing mycelia of Sclerotinia sclerotiorum were put on a primary leaf and then 10 μl of PD broth were dropped on the disks. The treated seedlings were kept ina greenhouse (20° C.) for 2 days and then the diameters of the disease spots were measured by a pair of slide callipers. [formula]

Candida albicans = assay: Test A-2 Anti-fungal Activity (MCC); conditions: 48 h, read-out: MCC (Minimal Cidal Concentration)
Description: (§3) Some MCC (Minimal Cidal Concentration) values (Table 1) were obtained against Candida albicans and Trichophyton asteroides by the following method. After the MIC value was obtained by the microwell method, a loopful amount was picked up from the medium in which no growth of the fungus was observed, inoculated into a Subrouraud's glucose agar medium and incubated at 28° C. for 2 days in the case of C. albicans and for 7 days in the case of T. asteroides.

Trichophyton asteroides [4] = assay: Test A-2 Anti-fungal Activity (MCC); conditions: 168 h, read-out: MCC (Minimal Cidal Concentration)
Description: as §3

Mycoplasma gallisepticum = assay: minimum inhibition concentration; type: cell-based; conditions: Mycoplasmoides gallisepticum, one range for the listed compounds
Mycoplasma hyopneumonia = assay: growth inhibition of a swine enzootic pneumonia-causative bacteria; type: cell-based; conditions: one range for the listed compounds, read-out: concentration inhibiting the growth
Pyricularia oryzae = type: in vivo; conditions: 500 ppm; rice plant blast, 24 hours + 7 days

Row | Compound | MIC (Trichophyton asteroides [1]) [µg/mL] | MIC (Aspergillus fumigatus) [µg/mL] | MIC (Candida albicans M-9) [µg/mL] | further results
1 | Cc1cc(OCC#CI)no1 [3-(3-iodo-2-propynyl)oxy-5-methylisoxazole] |  |  |  | anti-fungal activity (fungi): anti-fungal and anti-septic agent for woods
2 | IC#CCOc1noc2ccccc12 [3-(3-iodo-2-propynyloxy)benzisoxazole] |  |  |  | anti-fungal activity (fungi): has the same activity
3 | CCc1noc(N(C)CC#CI)c1Cl [Comp. 1, 3-ethyl-4-chloro-5-(N-methyl-N-3-iodo-2-propynyl)-aminoisoxazole] | 0.8 (≈ 2.46 µM) | 6.3 (≈ 19.4 µM) | 3.1 (≈ 9.55 µM) | Percent Disease Control [2]: 100%; Percent Disease Control (Botrytis cinerea): 100%; Percent Disease Control (Sphaerotheca fuliginea): 100%; Percent Disease Control [3]: 100%; pest or weed control at 500 ppm (Sclerotinia sclerotiorum): 100%
4 | Clc1c(-c2ccccc2)noc1NCC#CI [Comp. 2, 3-phenyl-4-chloro-5-(3-iodo-2-propynyl)aminoisoxazole] | 0.4 (≈ 1.12 µM) | 6.2 (≈ 17.3 µM) | 0.1 (≈ 0.279 µM) | 
5 | Cc1cc(N(C)CC#CI)on1 [Comp. 3] | 1.6 (≈ 5.8 µM) | 0.8 (≈ 2.9 µM) | 0.4 (≈ 1.45 µM) | 
6 | CCN(CC#CI)c1cc(C)no1 [Comp. 4] | 1.6 (≈ 5.52 µM) | 1.6 (≈ 5.52 µM) | 0.8 (≈ 2.76 µM) | MFC (Candida albicans): 25 µg/mL (≈ 86.2 µM); MFC (Trichophyton asteroides [4]): 3.1 µg/mL (≈ 10.7 µM)
7 | CCc1cc(N(C)CC#CI)on1 [Comp. 5] | 1.6 (≈ 5.52 µM) | 1.6 (≈ 5.52 µM) | 0.8 (≈ 2.76 µM) | Percent Disease Control [2]: 95.0%; Percent Disease Control (Botrytis cinerea): 100%; MIC (Mycoplasma gallisepticum): 6.25 to 12.5 µg/mL (≈ 21.5 to 43.1 µM); pest or weed control at 500 ppm (Sclerotinia sclerotiorum): 100%
8 | CC(C)c1cc(N(C)CC#CI)on1 [Comp. 6] | 1.6 (≈ 5.26 µM) | 1.6 (≈ 5.26 µM) | 0.8 (≈ 2.63 µM) | MFC (Candida albicans): 25 µg/mL (≈ 82.2 µM); MFC (Trichophyton asteroides [4]): 3.1 µg/mL (≈ 10.2 µM); Percent Disease Control [3]: 100%; pest or weed control at 500 ppm (Sclerotinia sclerotiorum): 100%
9 | CN(CC#CI)c1cc(C2CC2)no1 [Comp. 8] | 3.1 (≈ 10.3 µM) | 1.6 (≈ 5.3 µM) | 0.8 (≈ 2.65 µM) | 
10 | CN(CC#CI)c1cc(C2CCCCC2)no1 [Comp. 9] |  |  |  | MIC (Mycoplasma hyopneumonia): 3.13 to 12.5 µg/mL (≈ 9.09 to 36.3 µM); Percent Disease Control [2]: 100%
11 | CN(CC#CI)c1cc(-c2ccco2)no1 [Comp. 10] | 0.8 (≈ 2.44 µM) | 1.6 (≈ 4.88 µM) | 0.8 (≈ 2.44 µM) | 
12 | CN(CC#CI)c1cc(-c2cccs2)no1 [Comp. 11] | 1.6 (≈ 4.65 µM) | 3.1 (≈ 9.01 µM) | 0.8 (≈ 2.32 µM) | MFC (Candida albicans): 12.5 µg/mL (≈ 36.3 µM); Percent Disease Control (Botrytis cinerea): 100%; MFC (Trichophyton asteroides [4]): 1.6 µg/mL (≈ 4.65 µM)
13 | CN(CC#CI)c1cc(-c2ccccc2)no1 [Comp. 13] | 3.1 (≈ 9.17 µM) | 3.1 (≈ 9.17 µM) | 3.1 (≈ 9.17 µM) | MIC (Mycoplasma hyopneumonia): 3.13 to 12.5 µg/mL (≈ 9.26 to 37 µM); Percent Disease Control (Pyricularia oryzae): 99%
